# Measurements published in US12084521B2, “TLR9 inhibitors to suppress inflammatory response to pathogens” (University Of Maryland, Baltimore, priority 2018, dated 2024).
# Tests used:
# [1] = tested on: myDDosome; details: BMDM pretreated with CPDP; MyD88 IP, IRAK4 blot
# Protocol: Four million BMDMs per well were plated in 6-well plates and treated with CPDP for 30 minutes prior to stimulation with ODN 1668 for 90 minutes. Cells were lysed in 600 p L of buffer containing 20 mM HEPES (pH 7.4), 150 mM NaCl, 10 mM NaF, 2 mM Na3VO4, 1 mM EDTA, 1 mM EGTA, 0.5% Triton X-100, 0.1 mM DTT, and protease inhibitor cocktail (Roche™). Cell extracts were incubated overnight with 1 μg of anti-mouse MyD88 antibody (AF3109) (R&D Systems™, followed by a 4-hour incubation with 20 μL protein G Sepharose beads (ThermoFisherm Scientific). The beads were then washed 3 times with 500 μL of lysis buffer and boiled in 60 μL of Laemmli sample buffer (Bio-Rad™). Cell extracts were electrophoresed on 10% acrylamide gel by SDS-PAGE and transferred to PVDF membrane (Bio-Rad™). Rabbit anti-MyD88 IgG was purchased from Cell Signaling™. Mouse anti-IRAK4 IgG was obtained from Abcam™. Alkaline phosphatase-conjugated secondary antibodies against mouse and rabbit IgG were purchased from Cell Signaling™. The stabilized substrate for alkaline phosphatase was from Promega™.
# TLR stimulation causes formation of myDDosome, a signaling complex composed through interactions of IRAK and MyD88 death domains. To test if peptides inhibit myDDosome formation, MyD88 was immunoprecipitated from lysates of ODN-stimulated BMDM and the precipitates analyzed for IRAK4 presence. BMDM were lysed and lysates immunoprecipitated with anti-MyD88 Ab and immune complexes assessed with anti-IRAK4 Ab 3 hours after cell treatment with ODN 1668.
# [2] = tested on: TLR1/2 signaling; assay: TNFα mRNA in BMDM stimulated with Pam3C; assay type: cell-based, mouse; details: peptide 40 μM; P3C 0.33 μM; 1 h
# Protocol: The cDNA obtained was amplified with gene-specific primers for mouse HPRT, TNFα, IL-10, IL-12-p40, or IL-6 and Fast SYBR Green™ master mix (Applied Biosystemsm) as previously described.
# CPDPs 9R34 and 9R11 were examined for inhibition of TLR1/2, TLR4, and TLR7 signaling. BMDMs were stimulated with Pam3C, E. coli LPS, or R848 and TNFαmRNA was measured 1 hour after stimulation. Mouse BMDM were treated with 40 μM of the indicated peptides for 30 minutes prior to stimulation with ODN 1668 (1 μM), E. coli LPS (0.1 μg/mL), R848 (2.85 μM), or P3C (0.33 μM). R848 and P3C were used to specifically activate TLR7 and TLR2 signaling, respectively. TNFαmRNA expression was measured 1 h after ODN 1668 challenge and normalized to the expression of HPRT. See results in FIG. 8A, FIG. 8B, and FIG. 8C. […] The statistical significance of changes was determined by a one-way ANOVA test; *p<0.01.
# [3] = tested on: TLR9 signaling; assay: ODN 1668-induced cytokine secretion in BMDM supernatants (ELISA); assay type: cell-based, mouse; details: 5 hour supernatants, ODN 1668 1 μM
# Protocol: Mouse TNFα and IL-12-p40 concentrations were measured in supernatants using ELISA kits from Biolegend™, Inc.
# BMDMs were incubated in the presence of a decoy peptide for 30 minutes prior to stimulation with ODN 1668 (1 μM). The statistical significance of changes in cytokine levels was determined by the one-way ANOVA test; *p<0.01.
# [4] = Stability and solubility of peptide solutions
# [5] = tested on: TLR9 signaling; assay: Plasma cytokines after i.p. ODN 1668 in mice; assay type: in vivo, C57BL/6J mice
# Protocol: (§1) Systemic cytokine levels were measured in plasma samples obtained 1, 3, and 5 hours after intraperitoneal (i.p.) administration of 7.86 nmol (50 μg) of ODN 1668 or 67 nmol of Pam3C per mouse, using ELISA kits from Biolegend™ Inc. CPDP were dissolved in PBS and administered i.p. at the dose of 200 nmol per mouse 1 hour before administration of a TLR agonist. For survival experiments, mice were sensitized to TLR9 agonists by i.p. injection of 20 mg of D-Gal 30 minutes before administration of peptides or PBS. ODN 1668 was used at the doses of 3.93 or 7.86 nmol/mouse (25 or 50 μg/mouse) 1.5 hours after D-Gal. Animal survival was monitored for 50 hours. All agents were administered i.p. in 500 μL volume of PBS. Animals had free access to food and water during the observation period. All animal experiments were conducted in accordance with the national guidelines for the care and use of laboratory animals under a protocol that was approved by the UMB IACUC.
# To test the in vivo efficacy and specificity of 9R34-ΔN, C57BL/6J mice were mock-treated or treated i.p. with a single dose of inhibitory or control peptide (200 nmol/mouse) and challenged with TLR9 agonist ODN 1668 (7.86 nmol/mouse) or TLR2/1 agonist Pam3C (67 nmol/mouse) 1 hour later. Plasma concentrations of TNFα and IL-12-p40 were measured 1, 3, and 5 hours after the challenge. Both TLR agonists increased concentrations of TNFα and IL-12-p40 in 1 hour samples from below the limit of detection to about 1.2 and about 6 ng/mL in the case of ODN 1668, and to 0.12 ng/mL and 1 ng/mL after treatment with Pam3C.
# Plasma TNFα and IL-12-p40 levels following intraperitioneal administration of ODN 1668 to C57Bl/6J mice in peptide-pretreated and control mice are shown in FIG. 14A and FIG. 14B. Data shown in these figures represent the means±SEM obtained in at least three independent experiments. The statistical significance of changes in cytokine concentrations was determined by a two-way ANOVA test; *p<0.001.
# [6] = tested on: TLR9-induced lethality; assay: Survival of D-Gal pretreated mice after ODN 1668; assay type: in vivo, C57Bl/6J mice
# Protocol: as §1
# With the exception for LPS, administration of a purified TLR agonist is not lethal to mice. Mice, however, can be sensitized to TLR agonists by pretreatment with D-galactosamine (D-Gal). Survival of C57Bl/6J mice pretreated with D-galactosamine and challenged with different doses of ODN 1668 was tested. Mice were first administered with D-Gal intraperitoneally at the dose of 20 mg/mouse. Thirty minutes later mice were mock-treated with PBS or treated with a CPDP at the dose 200 nmol/mouse. ODN 1668 was administered 1 hour after peptide treatment at the dose of 3.93 or 7.86 nmol/mouse.
# [7] = tested on: TLR2/1 signaling; assay: Plasma cytokines after i.p. Pam3C in mice; assay type: in vivo, C57BL/6J mice; details: peptide 200 nmol/mouse i.p.; Pam3C 67 nmol/mouse
# Protocol: as §1, with “Animals had free access to food and water during the observation period. All animal experiments were conducted in accordance with the national guidelines for the care and use of laboratory animals under a protocol that was approved by the UMB IACUC.” left out
# To test the in vivo efficacy and specificity of 9R34-ΔN, C57BL/6J mice were mock-treated or treated i.p. with a single dose of inhibitory or control peptide (200 nmol/mouse) and challenged with TLR9 agonist ODN 1668 (7.86 nmol/mouse) or TLR2/1 agonist Pam3C (67 nmol/mouse) 1 hour later. Plasma concentrations of TNFα and IL-12-p40 were measured 1, 3, and 5 hours after the challenge. […]
# Plasma TNFα and IL-12-p40 levels following intraperitioneal administration of ODN 1668 to C57Bl/6J mice in peptide-pretreated and control mice are shown in FIG. 14A and FIG. 14B. […] The statistical significance of changes in cytokine concentrations was determined by a two-way ANOVA test; *p<0.001.
# [8] = higher ODN1668 dose 50 μg/mouse, peptide 200 nmol/mouse i.p.
Sequence,ODN 1668-induced myDDosome formation [1],signaling induced by TLR1/2 agonist (TNFα mRNA) [2],secretion of IL-12-p40 ([3]; peptide 20 μM),production/secretion of TNFα ([3]; peptide 40 μM),secretion of IL-12-p40 ([3]; peptide 40 μM),concentration up to which stock solutions were stable [4],"decrease of plasma IL-12-p40 peak ([5]; 3-hour samples, peptide 200 nmol/mouse i.p., ODN 1668 7.86 nmol/mouse)",1-hour plasma TNFα peak ([5]; peptide 200 nmol/mouse i.p. 1 hour before ODN 1668 7.86 nmol/mouse),"ODN 1668-induced plasma cytokine levels (TNFα, IL-12-p40) ([5]; peptide 200 nmol/mouse i.p., ODN 1668 7.86 nmol/mouse)",protection against ODN-induced lethality (overall) ([6]; D-Gal pretreated mice),"protection of D-Gal pretreated mice (survival) ([6]; ODN 1668 lower dose 3.93 nmol/mouse, peptide 200 nmol/mouse i.p.)","mice rescued [6, 8]","protection of D-Gal pretreated mice (survival) [6, 8]","Pam3C-induced plasma cytokine levels (TNFα, IL-12-p40) [7]"
RSFWAQLGMALTRD (Synthetic peptide 9R11),prevented ODN 1668-induced myDDosome formation,did not inhibit,also effective,decreased the production of TNFα,reduced secretion,–,–,–,–,–,–,–,–,–
ALRLCLEERD [Peptide 9R34-ΔN],–,–,–,–,–,up to 10 mM,approximately 25 fold,eliminated,selectively inhibited only the ODN 1668-induced cytokines,protects mice from TLR9-induced lethality,full protection,more than 50%,less protective,did not affect cytokine levels
